According to US20020032316A1, “Hapten-carrier conjugates for use in drug-abuse therapy and methods for preparation of same” (priority 1995, published 2002):
Like-named read-outs stand apart in the source and are kept apart here.

Key:
[1] = pre-incubation with 50-fold excess unlabeled nicotine
Experimental: Immune sera from the above experiment was incubated with [^3H]-nicotine and protein-G-conjugated Sepharose beads (Gammabind-G Sepharose, Pharmacia), which bind IgG in the sera samples. The antibody-bound [^3H]-nicotine was isolated by centrifugation of the beads and was detected by scintillation counting of the beads.

[2] = cited from earlier work; for plasma half life: Henningfield (1995); for peak plasma concentration: in vivo
[3] = tested on: antibodies in the rat sera binding to PS-5.4 HEL; details: sera of rats immunized with cocaine-rCTB conjugate
anti-cocaine antisera = assay: Specificity competition ELISA: drugs inhibiting binding of antibodies to cocaine-HEL; details: pool of antisera of mice immunized with cocaine-CTB PS-5.53; varying concentrations
rats = assay: Discrimination of cocaine from saline, 2-lever procedure; assay type: in vivo; details: Rattus norvegicus, ip; rats trained on 10 mg/kg cocaine i.p., cumulative dosing; read-out: ED50±95% C.I. for cocaine-appropriate responses
Text: After cocaine injections are given, the animals are required to press one of the levers (drug-appropriate lever) 10 times (FR 10) to obtain a food pellet; upon saline injections, they are required to press the other lever (saline-appropriate lever) 10 times to obtain a food pellet. When animals have learned to discriminate cocaine from saline, at least 90% of the total responses are made on the appropriate lever for several consecutive days. In order to incorporate a cumulative dosing procedure during later substitution test sessions, training sessions are made up of multiple components, each lasting for 10 min or until 10 FRs are completed, whichever occurred first.
Following training, substitution test sessions with different doses of cocaine (0.3-17.8 mg/kg) are conducted twice weekly, with training sessions on intervening days. Drug substitution test sessions consisted of four 10 min components, each preceded by a 15 min time-out period. During substitution tests, completion of 10 responses on either lever produce a food pellet. Incremental doses of cocaine are injected at the beginning of each of the 4 time-out periods. Overlapping ranges of cumulative doses are studied on different test days, permitting a seven-point cumulative dose-response curve to be determined in a single week. […]

mice = details: for total levels of cocaine in the brains of control mice: mouse, in vivo
[4] = Cocaine LD50 and time-to-death in immunized and naive mice; details: BALB/c, mouse, in vivo
Experimental: In these experiments, cocaine-immunized and control carrier-immunized mice are injected i.v. with cocaine at doses around the previously defined LD50. Ten mice are used at each point, and the data is analyzed using a Cochran-Mantel-Haenzel Chi-squared test.
In addition, a failure time model is used to analyze the time-to-death induced by cocaine. The extent to which the anti-cocaine antibodies increase both (a) the dose of cocaine required for lethality and (b) the time-to-death are measures of efficacy in this model. These provide a rapid and rigorous test of the in vivo efficacy of the antibodies.
The efficacy of therapeutic vaccination against cocaine was assessed by determining the lethal dose of cocaine (LD50) in immunized and naive animals. […] Each of the mice was bled at day 34 and serum antibody titers and competition with cocaine were assessed. […] For the LD50 experiment, 4-6 mice were used per group and each group was carefully matched for antibody titer and apparent affinity for free cocaine.

[5] = in vivo; cited from earlier work
[6] = tested on: eukaryotic cells expressing ganglioside GM1; assay type: cell-based
[7] = tested on: antibodies in the sera binding to PS-55 HEL; assay: Competition ELISA with free nicotine or cotinine; parameters: species or system mouse; details: sera of mice injected with PS-55 BSA
Experimental: To determine whether the induced antibodies are capable of recognizing the free nicotine molecule, a competition ELISA was performed. In this assay, free nicotine competes with PS-55 HEL coated to ELISA plates for the binding of antibodies in the sera. If the antibodies that have a high affinity for nicotine comprise most of the antibodies binding to the PS-55 HEL, then low concentrations of nicotine are capable of effectively inhibiting the antibody binding. For 3 out of 4 mice described above which were injected with PS-55 BSA, antibody binding to PS-55 HEL was inhibited by free nicotine (FIG. 25). Note that the presence of antibody specific for the conjugate alone would not be expected to interfere with the action of the anti-nicotine antibody.

[8] = HPLC analysis of methyl ester hydrolysis of succinylated norcocaine; details: 25° C.
[9] = cited from earlier work

Molecule: CN1CCCC1c1cccnc1 (stereo not shown) [nicotine, 1-Methyl-2-(3-pyridyl)pyrrolidine]
- inhibition of [^3H]-nicotine binding to antibodies [1]: completely inhibited the binding
- plasma half life [2]: approximately two
- peak plasma concentration [2]: 25 to 50 ng/mL

Molecule: CN1[C@H]2CC[C@@H]1[C@@H](C(=O)O)[C@@H](OC(=O)c1ccccc1)C2 [benzoylecgonine, 3β-(Benzoyloxy)-8-methyl-8-azabicyclo[3.2.1]octane-2β-carboxylic acid]
- competition of rat sera [3]: none of the sera tested are able to be competed by benzoylecgonine
- inhibition of binding of antibodies to cocaine-HEL (anti-cocaine antisera): at high concentrations

Molecule: COC(=O)[C@H]1[C@@H](OC(=O)c2ccccc2)C[C@@H]2CC[C@H]1N2C [cocaine, 3β-(Benzoyloxy)-8-methyl-8-azabicyclo[3.2.1]octane-2β-carboxylic acid methyl ester]
- ED50 (rats): 2.14 ± 0.2 mg/kg
- time of peak cocaine levels (mice; after intranasal administration): 2 to 5 min
- time of peak cocaine levels (mice; after intravenous injection): 0.25 min
- total levels of cocaine in the brains of control mice (mice): 1538 ng/g
- total levels of cocaine in the brains of control mice (mice; iv): 2260 ng/g
- published peak plasma levels ([2]; in addicts, Ambre 1991, Cone 1995, Cone 1989): 0.3 to 1.5 µg/mL
- peak plasma concentration [2]: 300 to 1000 ng/mL
- LD50 ([4]; ip): 20 mg/kg
- LD50 ([4]; iv): 3 mg/kg

Molecule: CNCCCN1c2ccccc2CCc2ccccc21 [desipramine]
- cocaine abstinence rate following treatment [5]: ≤ 70%

Molecule: rCTB
- binding to cells (flow cytometry) [6]: bound to eukaryotic cells expressing ganglioside GM1

Molecule: CN1C(=O)CCC1c1cccnc1 (stereo not shown) [cotinine, N-Methyl-2-(3-pyridyl)-5-pyrrolidone]
- competition for antibodies in the sera [7]: cannot compete with antibodies in any of the sera except at very high concentrations
- plasma half life [2]: 19 h

Molecule: COC(=O)[C@H]1[C@@H](OC(=O)c2ccccc2)C[C@@H]2CC[C@H]1N2C(=O)CCC(=O)O [succinylated norcocaine, 3β-(Benzoyloxy)-8-succinoyl-8-azabicyclo[3.2.1]octane-2β-carboxylic acid methyl ester]
- time for 5% degradation ([8]; pH 6): 1.30 years
- time for 5% degradation ([8]; pH 8): 10.96 days

Molecule: C[C@]12N[C@H](Cc3ccccc31)c1ccccc12 [MK-801]
- increase of cocaine LD50 ([9]; alone): 1.3 fold
- increase of cocaine LD50 ([9]; combined with propanolol): 1.4 fold
